Eleven molecules from patent publication US8148531B2 (Chroma Therapeutics Ltd., priority 2005, dated 2012) can be followed below.

In experiment [1] the target is T1, Aurora-A (Homo sapiens, UniProt O14965).
T1 sequence (O14965 1-403): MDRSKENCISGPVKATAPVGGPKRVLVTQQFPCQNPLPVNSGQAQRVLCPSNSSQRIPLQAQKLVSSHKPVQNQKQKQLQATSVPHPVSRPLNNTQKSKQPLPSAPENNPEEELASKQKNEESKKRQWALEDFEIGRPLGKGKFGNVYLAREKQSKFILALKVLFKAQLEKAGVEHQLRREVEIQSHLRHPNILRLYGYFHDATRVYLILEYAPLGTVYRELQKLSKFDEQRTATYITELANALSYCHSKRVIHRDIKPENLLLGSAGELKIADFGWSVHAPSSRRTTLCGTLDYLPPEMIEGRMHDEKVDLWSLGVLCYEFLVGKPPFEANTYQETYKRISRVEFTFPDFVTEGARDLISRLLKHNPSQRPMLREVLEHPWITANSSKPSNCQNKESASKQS
Kind of experiment: Aurora-A enzyme assay (MBP-coated Flashplate, γ-33P-ATP). The following applies: IC50 range class; read-out: Inhibitor Activity vs Aurora-A. Format: biochemical. In outline: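 Aurora-A incubated with γ-33P-ATP in myelin basic protein-coated Flashplate wells, 1 h at 37° C, then washed and scintillation counted. IC50 obtained by sigmoidal variable-slope nonlinear regression of % activity against log compound concentration.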

Experiment [2] deals with Aurora-B (Homo sapiens, UniProt Q96GD4). As to the kind of experiment: Aurora-B enzyme assay (identical protocol as Aurora-A). In kind it is biochemical. The following applies: IC50 range class; read-out: Inhibitor Activity vs Aurora-B. In outline:
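Aurora-B was assayed in the same way as Aurora-A: kinase and γ-33P-ATP were incubated for 1 h at 37 °C in myelin basic protein-coated scintillation plates. After washing, bound radioactivity was counted. IC50 values came from a variable-slope sigmoidal fit of % activity against log compound concentration.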

Experiment [3] relates to U937 cell line. Kind of experiment: Cell inhibition assay (SRB cell viability), U937. In kind it is cell-based. The following applies: Homo sapiens, U-937, IC50 range class, 72 h, read-out: Inhibitor Activity vs U937 cell line. In outline: (§1)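 Log-phase cells seeded at 1000 cells/well, grown 24 h, then exposed to compounds (20 uM final) for 72 h. Viability read by sulphorhodamine B staining as % inhibition versus DMSO; IC50 from eight-point sigmoidal variable-slope fit.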

Experiment [4] concerns HCT 116 cell line. Kind of experiment: Cell inhibition assay (SRB cell viability), HCT 116. In kind it is cell-based. The following applies: Homo sapiens, IC50 range class, 72 h, read-out: Inhibitor Activity vs HCT 116 cell line. In outline:
as §1

The test system of experiment [5] is HUT cell line. As to the kind of experiment: Cell inhibition assay (SRB cell viability), HUT. The following applies: IC50 range class, 72 h, read-out: Inhibitor Activity vs HUT cell line. In kind it is cell-based. In outline: as §1

Aurora-B, sequence (Q96GD4 whole entry): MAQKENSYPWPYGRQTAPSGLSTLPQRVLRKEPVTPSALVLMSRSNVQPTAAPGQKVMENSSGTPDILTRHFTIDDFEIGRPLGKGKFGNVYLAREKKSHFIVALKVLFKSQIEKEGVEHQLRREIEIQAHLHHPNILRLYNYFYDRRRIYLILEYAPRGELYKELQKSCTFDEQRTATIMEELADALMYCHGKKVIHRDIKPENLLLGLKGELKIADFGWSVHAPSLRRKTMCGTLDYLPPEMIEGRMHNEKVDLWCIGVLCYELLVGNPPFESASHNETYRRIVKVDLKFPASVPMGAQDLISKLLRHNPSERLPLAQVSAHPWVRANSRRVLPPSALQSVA

For `COc1cc2c(Oc3ccc(NC(=O)c4ccccc4)cc3)ccnc2cc1OCC[C@H](N)C(=O)OC(C)(C)C` [Example 50, (S)-2-Amino-4-[4-(4-benzoylamino-phenoxy)-6-methoxy-quinolin-7-yloxy]-butyric acid tert-butyl ester], the IC50 in experiment [1] was 2000 to 5000 nM; in experiment [2] it was 2000 to 5000 nM; in experiment [3], less than 1000 nM; in experiment [4] it was less than 1000 nM; in experiment [5] it was less than 1000 nM.
As for `COc1cc2c(Oc3ccc(NC(=O)c4cccc(F)c4)cc3)ccnc2cc1OCC[C@H](N)C(=O)OC1CCCC1` [Example 55, (S)-2-Amino-4-{4-[4-(3-fluoro-benzoylamino)-phenoxy]-6-methoxy-quinolin-7-yloxy}-butyric acid cyclopentyl ester], the IC50 is 2000 to 5000 nM in experiment [1]; 2000 to 5000 nM in experiment [2]; less than 1000 nM in experiment [3]; less than 1000 nM in experiment [4]; less than 1000 nM in experiment [5].
On to `COc1cc2c(Oc3ccc(NC(=O)Nc4ccc(C(F)(F)F)cc4)cc3)ccnc2cc1OCC[C@H](N)C(=O)OC1CCCC1` [Example 93, (S)-2-Amino-4-(6-methoxy-4-{4-[3-(4-trifluoromethyl-phenyl)-ureido]-phenoxy}-quinolin-7-yloxy)-butyric acid cyclopentyl ester], for which the IC50 in experiment [1] is less than 2000 nM; in experiment [2] it was 2000 to 5000 nM; in experiment [3], less than 1000 nM; in experiment [4], less than 1000 nM; in experiment [5], less than 1000 nM.
As to `COc1cc2c(Oc3ccc(NC(=O)Nc4ccccc4)cc3)ccnc2cc1OCC[C@H](N)C(=O)OC1CCCC1` [Example 95, (S)-2-Amino-4-{6-methoxy-4-[4-(3-phenyl-ureido)-phenoxy]-quinolin-7-yloxy}-butyric acid cyclopentyl ester], the IC50 in experiment [1] is 2000 to 5000 nM; in experiment [2], 2000 to 5000 nM; in experiment [3] it was less than 1000 nM; in experiment [4], less than 1000 nM; in experiment [5], less than 1000 nM.
Regarding `COc1cc2c(Oc3ccc(NC(=O)c4ccccc4)cc3)ccnc2cc1OCC[C@@H](N)C(=O)OC1CCCC1` [Example 99, (R)-2-Amino-4-[4-(4-benzoylamino-phenoxy)-6-methoxy-quinolin-7-yloxy]-butyric acid cyclopentyl ester], the IC50 in experiment [1] is 2000 to 5000 nM; in experiment [2], 2000 to 5000 nM; in experiment [3], less than 1000 nM; in experiment [4], less than 1000 nM; in experiment [5] it was less than 1000 nM.
For `COc1cc2c(Oc3ccc(NC(=O)Nc4ccccc4)cc3)ccnc2cc1OCC[C@@H](N)C(=O)OC1CCCC1` [Example 101, (R)-2-Amino-4-{6-methoxy-4-[4-(3-phenyl-ureido)-phenoxy]-quinolin-7-yloxy}-butyric acid cyclopentyl ester], the IC50 was 2000 to 5000 nM in experiment [1]; less than 2000 nM in experiment [2]; less than 1000 nM in experiment [3]; less than 1000 nM in experiment [4]; less than 1000 nM in experiment [5].
In the case of `COc1cc2c(Oc3ccc(NC(=O)c4ccccc4)cc3)ccnc2cc1OCCC[C@H](N)C(=O)OC1CCCC1` [Example 109, (S)-2-Amino-5-[4-(4-benzoylamino-phenoxy)-6-methoxy-quinolin-7-yloxy]-pentanoic acid cyclopentyl ester], the IC50 in experiment [1] is 2000 to 5000 nM; in experiment [2], 2000 to 5000 nM; in experiment [3] it was less than 1000 nM; in experiment [4], less than 1000 nM; in experiment [5] it was less than 1000 nM.
On to `COc1cc2c(Oc3ccc(NC(=O)Nc4ccccc4)cc3)ccnc2cc1OCCC[C@H](N)C(=O)OC1CCCC1` [Example 111, (S)-2-Amino-5-{6-methoxy-4-[4-(3-phenyl-ureido)-phenoxy]-quinolin-7-yloxy}-pentanoic acid cyclopentyl ester], for which the IC50 in experiment [1] was 2000 to 5000 nM; in experiment [2], 2000 to 5000 nM; in experiment [3], less than 1000 nM; in experiment [4], less than 1000 nM; in experiment [5] it was less than 1000 nM.
Consider `COc1cc2c(Oc3ccc(NC(=O)c4ccccc4)cc3)ccnc2cc1OCCC[C@@H](N)C(=O)OC1CCCC1` [Example 115, (R)-2-Amino-5-[4-(4-benzoylamino-phenoxy)-6-methoxy-quinolin-7-yloxy]-pentanoic acid cyclopentyl ester], for which the IC50 in experiment [1] was 2000 to 5000 nM; in experiment [2] it was 2000 to 5000 nM; in experiment [3], less than 1000 nM; in experiment [4], less than 1000 nM; in experiment [5], less than 1000 nM.
On to `COc1cc2c(Oc3ccc(NC(=O)Nc4ccc(C(F)(F)F)cc4)cc3)ccnc2cc1OCCC[C@@H](N)C(=O)OC1CCCC1` [Example 119, (R)-2-Amino-5-(6-methoxy-4-{4-[3-(4-trifluoromethyl-phenyl)-ureido]-phenoxy}-quinolin-7-yloxy)-pentanoic acid cyclopentyl ester], for which the IC50 is less than 2000 nM in experiment [1]; less than 2000 nM in experiment [2]; less than 1000 nM in experiment [3]; less than 1000 nM in experiment [4]; less than 1000 nM in experiment [5].
As to `COc1cc2c(Oc3ccc(NC(=O)Nc4ccc(C(F)(F)F)cc4)cc3F)ccnc2cc1OCC[C@H](N)C(=O)OC1CCCC1` [Example 125, (S)-2-Amino-4-(4-{2-fluoro-4-[3-(4-trifluoromethyl-phenyl)-ureido]-phenoxy}-6-methoxy-quinolin-7-yloxy)-butyric acid cyclopentyl ester], the IC50 is 2000 to 5000 nM in experiment [1]; 2000 to 5000 nM in experiment [2]; less than 1000 nM in experiment [3]; less than 1000 nM in experiment [4]; less than 1000 nM in experiment [5].
